Test results published in US20260053811A1, “METHODS OF TREATING HYPERTENSION IN OBESE SUBJECTS” (Mineralys Therapeutics, Inc., priority 2022, published 2026).

System: hypertensive subjects
Assay: 24-hour ambulatory blood pressure monitoring (ABPM), incl. nighttime dip
Type: in vivo, human
Experimental: Ambulatory blood pressure monitoring was accomplished with an ambulatory blood pressure monitoring device that consists of a blood pressure cuff worn on a subject's arm attached to a small recording device that is typically attached to the subject's belt or waistband.
The ABPM device is worn for 24 hours. Throughout that period, the device records the subject's blood pressure at regular intervals, during the subject's routine daily activities and while they are sleeping. The ABPM thus provides a complete record of the subject's blood pressure over a 24-hour period.
24-hour ABPM was measured in the clinic at baseline and Study Week 7. If, for any reason, the ABPM procedure was deemed a failure at the end of Study Week 7, it may have been repeated at Study Week 8 and therefore no imputation was employed regardless of use of rescue medications. Additionally, ABPM was also collected at the end of Study Week 4 in Part 2. If a repeat test was performed, it supersedes the original test results for that visit.
Specific derived variables based on ABPM measurements include mean 24-hour, mean Daytime, and mean Nighttime of SBP, DBP, and heart rate.
Change from baseline to Week 7 in 24-hour mean SBP (and DBP) based on ABPM will be analyzed using an ANCOVA with a term for treatment group and a baseline mean 24-hour value as a covariate.
The nighttime dip is defined as
100%×(mean daytime SBP−mean nighttime SBP)/mean daytime SBP
It is expressed as a percentage and is summarized by treatment group and visit using descriptive statistics. In addition, the number and percentage of subjects with nighttime dip in each of the dipper categories (Bloomfield & Park, 2015) is presented by treatment group and visit. The categories are: • (a) <10% • (b) 10-20% inclusive • (c) >20%
Secondary endpoints of this study were: • (a) Change in 24-hour ambulatory blood pressure monitoring (ABPM) parameters (systolic and diastolic) from baseline to the end of Study Week 7. • (b) Change in office-measured SBP from baseline to the end of Study Weeks 1, 2, 3, 4, 5, 6, and 7. • (c) Change in office-measured diastolic blood pressure (DBP) from baseline to the end of Study Weeks 1, 2, 3, 4, 5, 6, 7, and 8. • (d) Proportion of subjects who achieve office-measured BP of ≤130/80 mm Hg by the end of Study Week 8.

[1] = 50 mg QD, End of Treatment, Part 1, FAS post-hoc
[2] = 100 mg QD Part 2, End of Treatment, FAS post-hoc
[3] = 100 mg QD, End of Treatment, Part 1, FAS post-hoc

SMILES: CC(=O)N[C@H]1CC[C@H](NC(=O)CN2CCN(c3nncc(-c4ccc(C)cc4)n3)CC2)CC1 [Compound A HBr]
- LSM Δ with Placebo, 24-hr Mean MAP (ABPM, ANCOVA) [1]: −3.48 mmHg
- LSM Δ with Placebo, 24-hr SBP (ABPM, ANCOVA) [1]: −3.85 mmHg
- LSM Δ with Placebo, Daytime Mean DBP (ABPM, ANCOVA) [1]: −4.18 mmHg
- LSM Δ with Placebo, Daytime Mean SBP (ABPM, ANCOVA) [1]: −6.85 mmHg
- LSM Δ with Placebo, Mean Central DBP (ABPM, ANCOVA) [1]: −2.58 mmHg
- LSM Δ with Placebo, Mean Central Mean BP (ABPM, ANCOVA) [1]: −4.11 mmHg
- LSM Δ with Placebo, Mean Central SBP (ABPM, ANCOVA) [1]: −5.46 mmHg
- LSM Δ with Placebo, Nighttime Mean DBP (ABPM, ANCOVA) [1]: 0.15 mmHg
- LSM Δ with Placebo, Nighttime Mean SBP (ABPM, ANCOVA) [1]: 2.37 mmHg
- 24-hr Mean DBP (ABPM), Mean (SD) (50 mg QD, EoT, Part 1, FAS): 77.75 (9.33) mmHg
- 24-hr Mean MAP (ABPM), Mean (SD) (50 mg QD, EoT, Part 1, FAS): 104.55 (11.74) mmHg
- 24-hr Mean SBP (ABPM), Mean (SD) (50 mg QD, EoT, Part 1, FAS): 131.36 (15.58) mmHg
- Daytime Mean DBP (ABPM), Mean (SD) (50 mg QD, EoT, Part 1, FAS): 79.50 (9.08) mmHg
- Daytime Mean SBP (ABPM), Mean (SD) (50 mg QD, EoT, Part 1, FAS): 132.32 (14.36) mmHg
- Nighttime Mean DBP (ABPM), Mean (SD) (50 mg QD, EoT, Part 1, FAS): 74.25 (13.08) mmHg
- Nighttime Mean SBP (ABPM), Mean (SD) (50 mg QD, EoT, Part 1, FAS): 129.54 (21.68) mmHg
- Subjects with nighttime dip 10-20% in 24-hour systolic ABPM (50 mg QD, EoT, Part 1, FAS): 6 (21.4) n (%)
- Subjects with nighttime dip <10% in 24-hour systolic ABPM (50 mg QD, EoT, Part 1, FAS): 22 (78.6) n (%)
- Subjects with nighttime dip >20% in 24-hour systolic ABPM (50 mg QD, EoT, Part 1, FAS): 0 n (%)
- 24-hr Mean DBP (ABPM) CFB to EoT, Mean (SD) (50 mg QD, Part 1, FAS): −3.00 (8.52) mmHg
- 24-hr Mean MAP (ABPM) CFB to EoT, Mean (SD) (50 mg QD, Part 1, FAS): −2.39 (11.80) mmHg
- 24-hr Mean SBP (ABPM) CFB to EoT, Mean (SD) (50 mg QD, Part 1, FAS): −1.79 (15.82) mmHg
- Daytime Mean DBP (ABPM) CFB to EoT, Mean (SD) (50 mg QD, Part 1, FAS): −4.11 (6.81) mmHg
- Daytime Mean SBP (ABPM) CFB to EoT, Mean (SD) (50 mg QD, Part 1, FAS): −4.54 (13.59) mmHg
- Nighttime Mean DBP (ABPM) CFB to EoT, Mean (SD) (50 mg QD, Part 1, FAS): 0.00 (12.34) mmHg
- Nighttime Mean SBP (ABPM) CFB to EoT, Mean (SD) (50 mg QD, Part 1, FAS): 2.44 (22.25) mmHg
- LSM Δ with 100 mg QD Part 1, 24-hr Mean AP (ABPM, ANCOVA) [2]: 3.33 mmHg
- LSM Δ with 100 mg QD Part 1, 24-hr Mean DBP (ABPM, ANCOVA) [2]: 4.26 mmHg
- LSM Δ with 100 mg QD Part 1, 24-hr Mean SBP (ABPM, ANCOVA) [2]: 4.13 mmHg
- LSM Δ with 100 mg QD Part 1, Daytime Mean DBP (ABPM, ANCOVA) [2]: 3.92 mmHg
- LSM Δ with 100 mg QD Part 1, Daytime Mean SBP (ABPM, ANCOVA) [2]: 1.64 mmHg
- LSM Δ with 100 mg QD Part 1, Mean Central DBP (ABPM, ANCOVA) [2]: 4.53 mmHg
- LSM Δ with 100 mg QD Part 1, Mean Central Mean BP (ABPM, ANCOVA) [2]: 3.98 mmHg
- LSM Δ with 100 mg QD Part 1, Mean Central SBP (ABPM, ANCOVA) [2]: 4.68 mmHg
- LSM Δ with 100 mg QD Part 1, Nighttime Mean DBP (ABPM, ANCOVA) [2]: 5.04 mmHg
- LSM Δ with 100 mg QD Part 1, Nighttime Mean SBP (ABPM, ANCOVA) [2]: 8.91 mmHg
- LSM Δ with Placebo, 24-hr DBP (ABPM, ANCOVA) [3]: −5.23 mmHg
- LSM Δ with Placebo, 24-hr Mean MAP (ABPM, ANCOVA) [3]: −5.45 mmHg
- LSM Δ with Placebo, 24-hr SBP (ABPM, ANCOVA) [3]: −5.33 mmHg
- LSM Δ with Placebo, Daytime Mean DBP (ABPM, ANCOVA) [3]: −4.98 mmHg
- LSM Δ with Placebo, Daytime Mean SBP (ABPM, ANCOVA) [3]: −4.12 mmHg
- LSM Δ with Placebo, Mean Central DBP (ABPM, ANCOVA) [3]: −7.01 mmHg
- LSM Δ with Placebo, Mean Central Mean BP (ABPM, ANCOVA) [3]: −7.77 mmHg
- LSM Δ with Placebo, Mean Central SBP (ABPM, ANCOVA) [3]: −7.79 mmHg
- LSM Δ with Placebo, Nighttime Mean DBP (ABPM, ANCOVA) [3]: −5.68 mmHg
- LSM Δ with Placebo, Nighttime Mean SBP (ABPM, ANCOVA) [3]: −7.36 mmHg
- 24-hr Mean DBP (ABPM), Mean (SD) (100 mg QD, EoT, Part 1, FAS): 75.92 (8.42) mmHg
- 24-hr Mean MAP (ABPM), Mean (SD) (100 mg QD, EoT, Part 1, FAS): 105.48 (8.26) mmHg
- 24-hr Mean SBP (ABPM), Mean (SD) (100 mg QD, EoT, Part 1, FAS): 135.04 (11.25) mmHg
- Daytime Mean DBP (ABPM), Mean (SD) (100 mg QD, EoT, Part 1, FAS): 78.79 (9.44) mmHg
- Daytime Mean SBP (ABPM), Mean (SD) (100 mg QD, EoT, Part 1, FAS): 139.42 (11.65) mmHg
- Nighttime Mean DBP (ABPM), Mean (SD) (100 mg QD, EoT, Part 1, FAS): 69.00 (9.04) mmHg
- Nighttime Mean SBP (ABPM), Mean (SD) (100 mg QD, EoT, Part 1, FAS): 124.50 (14.93) mmHg
- Subjects with nighttime dip 10-20% in 24-hour systolic ABPM (100 mg QD, EoT, Part 1, FAS): 11 (45.8) n (%)
- Subjects with nighttime dip <10% in 24-hour systolic ABPM (100 mg QD, EoT, Part 1, FAS): 11 (45.8) n (%)
- Subjects with nighttime dip >20% in 24-hour systolic ABPM (100 mg QD, EoT, Part 1, FAS): 2 (8.3) n (%)
- 24-hr Mean DBP (ABPM), Mean (100 mg QD, EoT, Part 2, FAS): 77.07 mmHg
- 24-hr Mean MAP (ABPM), Mean (100 mg QD, EoT, Part 2, FAS): 104.83 mmHg
- 24-hr Mean SBP (ABPM), Mean (100 mg QD, EoT, Part 2, FAS): 132.59 mmHg
- Daytime Mean DBP (ABPM), Mean (100 mg QD, EoT, Part 2, FAS): 79.41 mmHg
- Daytime Mean SBP (ABPM), Mean (100 mg QD, EoT, Part 2, FAS): 135.22 mmHg
- Nighttime Mean DBP (ABPM), Mean (100 mg QD, EoT, Part 2, FAS): 71.85 mmHg
- Nighttime Mean SBP (ABPM), Mean (100 mg QD, EoT, Part 2, FAS): 126.04 mmHg
- 24-hr Mean DBP (ABPM) CFB to EoT, Mean (SD) (100 mg QD, Part 1, FAS): −5.92 (8.44) mmHg
- 24-hr Mean MAP (ABPM) CFB to EoT, Mean (SD) (100 mg QD, Part 1, FAS): −7.40 (10.04) mmHg
- 24-hr Mean SBP (ABPM) CFB to EoT, Mean (SD) (100 mg QD, Part 1, FAS): −8.88 (11.90) mmHg
- Daytime Mean DBP (ABPM) CFB to EoT, Mean (SD) (100 mg QD, Part 1, FAS): −4.96 (8.74) mmHg
- Daytime Mean SBP (ABPM) CFB to EoT, Mean (SD) (100 mg QD, Part 1, FAS): −7.08 (12.60) mmHg
- Nighttime Mean DBP (ABPM) CFB to EoT, Mean (SD) (100 mg QD, Part 1, FAS): −6.57 (9.97) mmHg
- Nighttime Mean SBP (ABPM) CFB to EoT, Mean (SD) (100 mg QD, Part 1, FAS): −11.48 (13.87) mmHg
- 24-hr Mean DBP (ABPM) CFB to EoT, Mean (100 mg QD, Part 2, FAS): 1.33 mmHg
- 24-hr Mean MAP (ABPM) CFB to EoT, Mean (100 mg QD, Part 2, FAS): 1.81 mmHg
- 24-hr Mean SBP (ABPM) CFB to EoT, Mean (100 mg QD, Part 2, FAS): 2.30 mmHg
- Daytime Mean DBP (ABPM) CFB to EoT, Mean (100 mg QD, Part 2, FAS): 1.67 mmHg
- Daytime Mean SBP (ABPM) CFB to EoT, Mean (100 mg QD, Part 2, FAS): 2.41 mmHg
- Nighttime Mean DBP (ABPM) CFB to EoT, Mean (100 mg QD, Part 2, FAS): 1.04 mmHg
- Nighttime Mean SBP (ABPM) CFB to EoT, Mean (100 mg QD, Part 2, FAS): 1.52 mmHg
- Change in BP, ABPM (night) BPsys, Mean (sem) (100 mg QD, Week 8, FAS): −11.5 (2.5) mmHg
- Proportion of Subjects with Nighttime Dip in 24-hour Systolic Ambulatory Blood Pressure 10-20% (Part 2, 100 mg QD, EoT): (33.3) %
- Proportion of Subjects with Nighttime Dip in 24-hour Systolic Ambulatory Blood Pressure <10% (Part 2, 100 mg QD, EoT): (66.7) %
- Proportion of Subjects with Nighttime Dip in 24-hour Systolic Ambulatory Blood Pressure 10-20% (Part 2, 100 mg QD, Week 4): (24.0) %
- Proportion of Subjects with Nighttime Dip in 24-hour Systolic Ambulatory Blood Pressure <10% (Part 2, 100 mg QD, Week 4): (72.0) %
- Proportion of Subjects with Nighttime Dip in 24-hour Systolic Ambulatory Blood Pressure >20% (Part 2, 100 mg QD, Week 4): (4.0) %
